In PubChem BioAssay AID504822 (The Scripps Research Institute Molecular Screening Center, 2011) one finds EC50 data, which are given here for five compounds.

The target of the experiment is Caspase-7 (Homo sapiens) (UniProt P55210). In words: activators of human procaspase-7 D3A mutant, late-stage follow-up, biochemical, absorbance, PC-7 D3A triple mutant, powder samples (AID 504822). The following applies: recombinant procaspase-7 D3A, Ac-DEVD-pNA absorbance.

Activity calls are given as the source filed them.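 The calls were made as follows: active = EC50 for procaspase-7 activation at or below 10 µM; inactive = EC50 above 10 µM.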

Caspase-7 (Homo sapiens), sequence (P55210 whole entry D23A/D198A/D206A): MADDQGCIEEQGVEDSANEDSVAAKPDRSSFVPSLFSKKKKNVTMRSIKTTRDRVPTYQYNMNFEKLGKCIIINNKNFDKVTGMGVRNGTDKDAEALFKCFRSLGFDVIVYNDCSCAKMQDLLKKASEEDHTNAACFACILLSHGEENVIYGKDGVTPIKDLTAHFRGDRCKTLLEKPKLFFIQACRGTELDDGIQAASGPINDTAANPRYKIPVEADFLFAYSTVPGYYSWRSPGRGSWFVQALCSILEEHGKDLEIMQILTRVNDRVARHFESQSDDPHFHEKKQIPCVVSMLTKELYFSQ

As a reminder, the EC50 is the midpoint of the concentration-response curve. Take `COC(=O)C1=NN(c2ccc(Cl)cc2)C2C(=O)N(c3ccccc3OC)C(=O)C12` (stereo not given): the EC50 was > 85.3 µM (inactive).

For the compound `Cc1[nH]nc2c1C(c1c[nH]c3ccccc13)C(C#N)=C(N)O2` (stereo not given), the EC50 is 4.49 µM.

For `COc1ccccc1N1C(=O)C2C(C(=O)c3ccccc3)=NN(c3ccccc3)C2C1=O` (stereo not given), the EC50 is > 85.3 µM (inactive).

`O=C(C1=NN(c2ccccc2)C2C(=O)N(c3ccccc3)C(=O)C12)c1ccccc1` (stereo not given): the EC50 is > 85.3 µM (inactive).

For the compound `O=C(Nc1ccc(Cc2ccncc2)cc1)C1CCC(N2C(=O)C3C4C=CC(C5CC45)C3C2=O)CC1` (stereo not given), the EC50 is > 85.3 µM (inactive).
